PubChem BioAssay AID248 (DTP/NCI, 2004)
Where “and” joins values, the source holds several entries; their conditions need not be identical. Identical values can stand only once. Inconclusive results and toxic doses are left out. Rule as the data show it: active = T/C of 150% or more; inactive = T/C below 125%.

System: L1210 leukemia ip in BDF1 mice, survival T/C
Assay: NCI In Vivo Anticancer Drug Screen. Data for tumor model L1210 Leukemia (intraperitoneal) in B6D2F1 (BDF1) mice
Conditions: endpoint: mean survival time, higher = longer survival
Summary of the method: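 Read-out is survival time, reported as the treated-group measurement over the vehicle-control measurement.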

[1] = dose: 25.0 mg/kg/injection, schedule: Q04DX003 (ip), vehicle: saline
[2] = dose: 50.0 mg/kg/injection, schedule: Q01DX009 (ip), vehicle: saline
[3] = dose: 50.0 mg/kg/injection, schedule: Q04DX003 (ip), vehicle: saline
[4] = dose: 12.5 mg/kg/injection, schedule: Q01DX009 (ip), vehicle: saline
[5] = dose: 25.0 mg/kg/injection, schedule: Q01DX009 (ip), vehicle: saline
[6] = dose: 100.0 mg/kg/injection, schedule: Q01DX009 (ip), vehicle: saline with Tween-80
[7] = dose: 200.0 mg/kg/injection, schedule: Q01DX009 (ip), vehicle: saline with Tween-80
[8] = dose: 400.0 mg/kg/injection, schedule: Q01DX009 (ip), vehicle: saline with Tween-80
[9] = dose: 100.0 mg/kg/injection, schedule: Q04DX003 (ip), vehicle: saline with Tween-80
[10] = dose: 200.0 mg/kg/injection, schedule: Q04DX003 (ip), vehicle: saline with Tween-80
[11] = dose: 400.0 mg/kg/injection, schedule: Q04DX003 (ip), vehicle: saline with Tween-80
[12] = dose: 100.0 mg/kg/injection, schedule: Q04DX002 (ip), vehicle: saline with Tween-80
[13] = dose: 200.0 mg/kg/injection, schedule: Q04DX002 (ip), vehicle: saline with Tween-80
[14] = dose: 400.0 mg/kg/injection, schedule: Q04DX002 (ip), vehicle: saline with Tween-80
[15] = dose: 100.0 mg/kg/injection, schedule: Q04DX002 (ip), vehicle: saline
[16] = dose: 200.0 mg/kg/injection, schedule: Q04DX002 (ip), vehicle: saline
[17] = dose: 400.0 mg/kg/injection, schedule: Q04DX002 (ip), vehicle: saline

Measured: T/C

Nc1nc2nc(CC(=O)C(=O)O)c(=O)[nH]c2c(=O)[nH]1
inactive: dose: 3.12 mg/kg/injection, schedule: Q01DX009 (ip), vehicle: saline with Tween-80 97 % of control | dose: 6.25 mg/kg/injection, schedule: Q01DX009 (ip), vehicle: saline with Tween-80 101 % of control | dose: 12.5 mg/kg/injection, schedule: Q01DX009 (ip), vehicle: saline with Tween-80 103 % of control | dose: 12.5 mg/kg/injection, schedule: Q04DX003 (ip), vehicle: saline 105 % of control | [1] 111 % of control | [2] 97 % of control | [3] 104 % of control | dose: 100.0 mg/kg/injection, schedule: Q04DX003 (ip), vehicle: saline 106 % of control

O=C1C=CC(=O)N1c1ccccc1Cl (tested in a mixture with another compound)
inactive: dose: 100.0 mg/kg/injection, schedule: Q04DX003 (ip), vehicle: acetone 107 % of control | dose: 200.0 mg/kg/injection, schedule: Q04DX003 (ip), vehicle: acetone 100 % of control | dose: 400.0 mg/kg/injection, schedule: Q04DX003 (ip), vehicle: acetone 96 % of control

Cc1cccnc1NC(=O)/C=C/C(=O)O
inactive: [4] 94 % of control | [5] 100 % of control | [2] 94 % of control

CCCC(Cc1ccccc1)N1CCCC1 (centres undefined)
inactive: dose: 3.12 mg/kg/injection, schedule: Q01DX009 (ip), vehicle: saline 103 % of control | dose: 6.25 mg/kg/injection, schedule: Q01DX009 (ip), vehicle: saline 103 % of control | [4] 97 % of control | [5] 103 % of control | [1] 92 % of control | [3] 95 % of control

C=CCSCn1ncc2ccc([N+](=O)[O-])cc21
inactive: dose: 100.0 mg/kg/injection, schedule: Q01DX001 (ip), vehicle: saline 94 % of control | dose: 200.0 mg/kg/injection, schedule: Q01DX001 (ip), vehicle: saline 92 % of control | dose: 400.0 mg/kg/injection, schedule: Q01DX001 (ip), vehicle: saline 96 % of control

CC(=O)OC(CNCC(=O)O)C(Cl)(Cl)Cl (centres undefined)
inactive: [6] 90 % of control | [7] 95 % of control | [8] 97 % of control

C#CCNc1ccccc1
inactive: dose: 100.0 mg/kg/injection, schedule: Q04DX002 (sc), vehicle: olive oil, sesame oil, peanut oil 102 % of control | dose: 200.0 mg/kg/injection, schedule: Q04DX002 (sc), vehicle: olive oil, sesame oil, peanut oil 102 % of control | dose: 400.0 mg/kg/injection, schedule: Q04DX002 (sc), vehicle: olive oil, sesame oil, peanut oil 109 % of control

CC1=C2CC(C(C)(C)O)CCC2(C)CC/C1=N\N1CCCCC1 (centres undefined)
inactive: dose: 100.0 mg/kg/injection, schedule: Q04DX003 (sc), vehicle: olive oil, sesame oil, peanut oil 100 % of control | dose: 200.0 mg/kg/injection, schedule: Q04DX003 (sc), vehicle: olive oil, sesame oil, peanut oil 107 % of control | dose: 400.0 mg/kg/injection, schedule: Q04DX003 (sc), vehicle: olive oil, sesame oil, peanut oil 105 % of control

C#C/C=C/CC1OC(C(Br)CC)CC(Br)C2CC1O2 (centres undefined)
inactive: dose: 75.0 mg/kg/injection, schedule: Q01DX001 (ip), vehicle: carboxymethylcellulose (CMC) 92 % of control | dose: 150.0 mg/kg/injection, schedule: Q01DX001 (ip), vehicle: carboxymethylcellulose (CMC) 96 % of control | dose: 300.0 mg/kg/injection, schedule: Q01DX001 (ip), vehicle: carboxymethylcellulose (CMC) 96 % of control

CCC/C(C)=N\O
inactive: [9] 102 % of control | [10] 111 % of control | [11] 100 % of control

Cc1ccc(N=Nc2ccc(C)cc2NC(=O)c2ccc(Cl)cc2)cc1
inactive: dose: 50.0 mg/kg/injection, schedule: Q01DX001 (ip), vehicle: saline with Tween-80 100 % of control | dose: 50.0 mg/kg/injection, schedule: Q04DX003 (ip), vehicle: saline with Tween-80 90 % of control | dose: 100.0 mg/kg/injection, schedule: Q01DX001 (ip), vehicle: saline with Tween-80 90 % of control | [6] 93 % of control and 94 % of control | [12] 94 % of control and 90 % of control | [9] 93 % of control | [7] 95 % of control and 97 % of control | [13] 93 % of control and 91 % of control | [10] 93 % of control | [8] 90 % of control and 92 % of control | [14] 87 % of control and 89 % of control | [11] 89 % of control and 90 % of control

Clc1c(C(Cl)(Cl)Cl)nc2ccccc2c1Br
inactive: dose: 6.25 mg/kg/injection, schedule: Q01DX009 (ip), vehicle: Klucel (hydroxypropylcellulose) (HPC) 101 % of control | dose: 12.5 mg/kg/injection, schedule: Q01DX009 (ip), vehicle: Klucel (hydroxypropylcellulose) (HPC) 97 % of control | dose: 25.0 mg/kg/injection, schedule: Q01DX009 (ip), vehicle: Klucel (hydroxypropylcellulose) (HPC) 97 % of control

NC(=O)C1CCNCC1
inactive: [15] 108 % of control | [16] 102 % of control | [17] 115 % of control

Cc1ccc(S(=O)(=O)OCCCl)cc1
inactive: [12] 98 % of control | [13] 109 % of control

Cc1[nH]nc(-c2cccnc2)c1N=NN(C)C
inactive: dose: 75.0 mg/kg/injection, schedule: Q01DX001 (ip), vehicle: saline 110 % of control | dose: 150.0 mg/kg/injection, schedule: Q01DX001 (ip), vehicle: saline 106 % of control | dose: 300.0 mg/kg/injection, schedule: Q01DX001 (ip), vehicle: saline 111 % of control

Fc1c(F)c(F)c(Oc2nc(Oc3c(F)c(F)c(F)c(F)c3F)nc(-c3ccccc3)n2)c(F)c1F
inactive: dose: 25.6 mg/kg/injection, schedule: Q04DX002 (ip), vehicle: saline with Tween-80 91 % of control | dose: 64.0 mg/kg/injection, schedule: Q04DX002 (ip), vehicle: saline with Tween-80 102 % of control | [9] 92 % of control | dose: 160.0 mg/kg/injection, schedule: Q04DX002 (ip), vehicle: saline with Tween-80 94 % of control | [10] 92 % of control | [14] 105 % of control | [11] 87 % of control

O=C1OC(c2cccc([N+](=O)[O-])c2)=N/C1=C\c1ccc(O)cc1
inactive: [15] 101 % of control | [16] 101 % of control | [17] 101 % of control

C/C(=C\C(C)(C)c1ccccc1)c1ccccc1
inactive: dose: 50.0 mg/kg/injection, schedule: Q04DX003 (ip), vehicle: other 92 % of control | dose: 100.0 mg/kg/injection, schedule: Q04DX003 (ip), vehicle: other 92 % of control | dose: 200.0 mg/kg/injection, schedule: Q04DX003 (ip), vehicle: other 100 % of control

O=c1[nH]c(=S)[nH]c2nccnc12
inactive: dose: 16.0 mg/kg/injection, schedule: Q01DX Z (ip), vehicle: methylcellulose (MC) 108 % of control | dose: 31.0 mg/kg/injection, schedule: Q01DX Z (ip), vehicle: methylcellulose (MC) 103 % of control | dose: 62.0 mg/kg/injection, schedule: Q01DX Z (ip), vehicle: methylcellulose (MC) 105 % of control | dose: 125.0 mg/kg/injection, schedule: Q01DX Z (ip), vehicle: methylcellulose (MC) 97 % of control and 106 % of control | dose: 250.0 mg/kg/injection, schedule: Q01DX Z (ip), vehicle: methylcellulose (MC) 97 % of control | dose: 500.0 mg/kg/injection, schedule: Q01DX Z (ip), vehicle: methylcellulose (MC) 106 % of control

O=C(O)CSc1ccc2ccccc2c1
inactive: dose: 100.0 mg/kg/injection, schedule: Q04DX002 (ip), vehicle: Klucel (hydroxypropylcellulose) (HPC) 89 % of control | dose: 200.0 mg/kg/injection, schedule: Q04DX002 (ip), vehicle: Klucel (hydroxypropylcellulose) (HPC) 111 % of control | dose: 400.0 mg/kg/injection, schedule: Q04DX002 (ip), vehicle: Klucel (hydroxypropylcellulose) (HPC) 108 % of control

O=C(Oc1ccc(Cl)cc1)c1ccc(C(=O)Oc2ccc(Cl)cc2)cc1
inactive: dose: 75.0 mg/kg/injection, schedule: Q01DX009 (ip), vehicle: saline sonified 93 % of control | dose: 100.0 mg/kg/injection, schedule: Q04DX003 (ip), vehicle: Klucel (hydroxypropylcellulose) (HPC) 100 % of control | dose: 150.0 mg/kg/injection, schedule: Q01DX009 (ip), vehicle: saline sonified 91 % of control | dose: 200.0 mg/kg/injection, schedule: Q04DX003 (ip), vehicle: Klucel (hydroxypropylcellulose) (HPC) 97 % of control | dose: 300.0 mg/kg/injection, schedule: Q01DX009 (ip), vehicle: saline sonified 87 % of control | dose: 400.0 mg/kg/injection, schedule: Q04DX003 (ip), vehicle: Klucel (hydroxypropylcellulose) (HPC) 92 % of control
